# Like-named read-outs stand apart in the source and are kept apart here.
# Experiments:
# [1] = biological target: T1, THYMIDYLATE SYNTHETASE (TS) (Mus musculus, UniProt P07607); experiment: Inhibition of thymidylate synthetase (TS), partially purified L1210 cytosol; format: biochemical; details: Table 1, inhibitor concentration reducing TS reaction rate by 50%, read-out: THYMIDYLATE SYNTHETASE I50
# T1 construct: The cytosol of log phase L1210 cells harvested from animals was partially purified for TS I50 and Ki determinations; endogenous in cells; host or cells: L1210 cells harvested from animals (cytosol, partially purified)
# Description: (§1) The cytosol of log phase L1210 cells harvested from animals was partially purified for TS I50 and Ki determinations to remove from the preparation a phosphatase which degrades dUMP to deoxyuridine. (The I50 was defined as the inhibitor concentration necessary to reduce the reaction rate of TS by 50%). DHFR was purified by affinity chromatography and Ki determinations performed.
# L1210 cells [2] = experiment: Growth inhibition of L1210 cells in suspension culture, 48 h count; format: cell-based; details: Mus musculus
# Protocol: (§2) Cells were diluted to 10^5 /ml and additions (diluted in medium and sterilised in Millipore filtration) made prior to starting each incubation. Cell counts were performed after 24 and 48 hours using an improved Neubauer haemocytometer.
# [3] = biological target: DIHYDROFOLATE REDUCTASE (DHFR); experiment: Inhibition of dihydrofolate reductase (DHFR) purified by affinity chromatography; format: biochemical; details: Table 1
# Description: as §1
# L1210:R71 cells = experiment: Growth inhibition of methotrexate-resistant L1210:R71 cells in suspension culture, 48 h count; format: cell-based, mouse; details: Table 2; for IC50: Mus musculus, MTX-resistant, 48 hour count reduced to 50% of control, read-out: ID50 L1210:R71
# Protocol: The compounds of Example 2 were evaluated in vitro as inhibitors as TS and cell growth and in vivo against the L1210 tumour. Since methotrexate (MTX) resistance is an important problem in cancer therapy, the compounds of the present invention were also investigated with this in mind.
# as §2, with “L1210 and L1210:R71 cells were grown in continuous suspension culture in RPMI 1640 medium containing 10% horse serum (Flow Laboratories, Irvine, Scotland; UK). Cells” for “Cells”
# TS = biological target: T2, TS (Mus musculus, UniProt P07607); experiment: Inhibition of TS purified >2,000 fold from L1210 cells by affinity chromatography; format: biochemical; details: for Relative potency ([drawing 17], I50 relative to CB 3717): relative to CB 3717 control, higher = weaker; for IC50: second results table, TS purified >2,000 fold, read-out: TS I50
# T2 construct: endogenous in cells
# L1210 cells [4] = experiment: Reversal of toxicity to L1210 cells in culture by thymidine; format: cell-based, mouse; details: second results table; L1210
# Protocol: as §2, with “L1210 and L1210:R71 cells were grown in continuous suspension culture in RPMI 1640 medium containing 10% horse serum (Flow Laboratories, Irvine, Scotland; UK). Cells” for “Cells”
# [5] = L1210, Table 2, 48 hour count reduced to 50% of control, read-out: ID50 L1210
# [6] = L1210, 48 h, second results table, read-out: ID50 L1210 (Tissue culture)
# T2 sequence (P07607 whole entry): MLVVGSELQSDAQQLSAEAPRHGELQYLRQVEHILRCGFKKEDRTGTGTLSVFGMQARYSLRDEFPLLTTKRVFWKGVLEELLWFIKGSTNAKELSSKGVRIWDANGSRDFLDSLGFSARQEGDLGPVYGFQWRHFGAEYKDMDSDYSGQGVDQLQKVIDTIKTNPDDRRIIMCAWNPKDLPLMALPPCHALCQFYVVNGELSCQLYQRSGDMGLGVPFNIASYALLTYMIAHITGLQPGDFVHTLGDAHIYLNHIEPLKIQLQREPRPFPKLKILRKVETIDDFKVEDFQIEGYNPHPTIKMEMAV
# T1 sequence (P07607 whole entry): as above
Compound,"Relative potency ([drawing 17], I50 relative to CB 3717) (TS)",IC50 (TS) [µM],IC50 (L1210 cells [2]; [6]) [µM],other results
"C=CCN(Cc1ccc2nc(N)nc(O)c2c1)c1ccc(C(=O)N[C@@H](CCC(=O)O)C(=O)O)cc1 [CB 3716, N-(4-(N-((2-amino-4-hydroxy-6-quinazolinyl)methyl)prop-2-enylamino)benzoyl)-L-glutamic acid]",,,,IC50 [1]: 0.069 µM; IC50 (L1210 cells [2]; [5]): 8.8 µM; Ki [3]: 0.027 µM; IC50 (L1210:R71 cells): 100 µM; CROSS RESISTANCE (ID50 L1210:R71/ID50 L1210) (L1210:R71 cells): 11
"C#CCN(Cc1ccc2nc(N)nc(O)c2c1)c1ccc(C(=O)N[C@@H](CCC(=O)OCC)C(=O)OCC)cc1 [CB 3721, diethyl N-(4-(N-((2-amino-4-hydroxy-6-quinazolinyl)methyl)prop-2-ynylamino)benzoyl)-L-glutamate]",> 62,> 3,52,
N#CCN(Cc1ccc2nc(N)[nH]c(=O)c2c1)c1ccc(C(=O)N[C@@H](CCC(=O)O)C(=O)O)cc1 [CB 3726],15.6,0.094,5.4,
Nc1nc2ccc(CN(CC(=O)O)c3ccc(C(=O)N[C@@H](CCC(=O)O)C(=O)O)cc3)cc2c(=O)[nH]1 [CB 3728],100,1.4,27,Reversal by thymidine (in culture) (L1210 cells [4]): yes
"Nc1nc(O)c2cc(CN(CCCO)c3ccc(C(=O)N[C@@H](CCC(=O)O)C(=O)O)cc3)ccc2n1 [CB 3729, N-(4-(N-((2-amino-4-hydroxy-6-quinazolinyl)methyl)-3-hydroxypropylamino)-benzoyl)-L-glutamic acid]",8.6,0.12,54,
"Nc1nc(O)c2cc(CN(CCF)c3ccc(C(=O)N[C@@H](CCC(=O)O)C(=O)O)cc3)ccc2n1 [CB 3731, N-(4-(N-((2-amino-4-hydroxy-6-quinazolinyl)methyl)2-fluoroethylamino)benzoyl)-L-glutamic acid]",6.8,0.095,16,
"Nc1nc(O)c2cc(CN(CC(=O)c3ccccc3)c3ccc(C(=O)N[C@@H](CCC(=O)O)C(=O)O)cc3)ccc2n1 [CB 3733, N-(4-(N-((2-amino-4-hydroxy-6-quinazolinyl)methyl)phenacylamino)benzoyl)-L-glutamic acid]",40,1.64,100,
NC(=O)CN(Cc1ccc2nc(N)[nH]c(=O)c2c1)c1ccc(C(=O)N[C@@H](CCC(=O)O)C(=O)O)cc1 [CB 3734],> 62.5,> 3,87,Reversal by thymidine (in culture) (L1210 cells [4]): yes
Nc1nc2ccc(CN(CCBr)c3ccc(C(=O)N[C@@H](CCC(=O)O)C(=O)O)cc3)cc2c(=O)[nH]1 [CB 3735],23,1.1,52,
Nc1nc2ccc(CN(CC3CO3)c3ccc(C(=O)N[C@@H](CCC(=O)O)C(=O)O)cc3)cc2c(=O)[nH]1 (stereo partly drawn) [CB 3736],7.6,0.31,> 300,
C#CCN(Cc1ccc2nc(N)[nH]c(=O)c2c1)c1ccc(C(=O)N[C@@H](CC(=O)O)C(=O)O)cc1 [CB 3737],1.6,0.066,> 100,
C#CCN(Cc1ccc2nc(N)[nH]c(=O)c2c1)c1ccc(C(=O)N[C@@H](CCC(=O)O)C(=O)O)c(C)c1 [CB 3738],1.1,0.047,24,
C#CCN(Cc1ccc2nc(N)[nH]c(=O)c2c1)c1ccc(C(=O)N[C@@H](CCC(=O)O)C(=O)O)c(Cl)c1 [CB 3739],,,17,
"Nc1nc(O)c2cc(CN(Cc3c[nH]c(=O)[nH]c3=O)c3ccc(C(=O)N[C@@H](CCC(=O)O)C(=O)O)cc3)ccc2n1 [CB 3743, N-(4-(N-(2-amino-4-hydroxy-6-quinazolinyl)methyl-N-(5-uracilyl)methyl-amino)benzoyl)-L-glutamic acid]",> 22,> 1,4.7,Reversal by thymidine (in culture) (L1210 cells [4]): yes
"CCOC(=O)CC[C@H](NC(=O)c1ccc(N(CC(=O)c2ccccc2)Cc2ccc3nc(N)nc(O)c3c2)cc1)C(=O)OCC [CB 3744, diethyl N-(4-(N-((2-amino-4-hydroxy-6-quinazolinyl)methyl)phenacylamino)benzoyl)-L-glutamate]",,,> 100,
CCOC(=O)CC[C@H](NC(=O)c1ccc(N(CC(=O)OCC)Cc2ccc3nc(N)[nH]c(=O)c3c2)cc1)C(=O)OCC [CB 3745],,,> 100,
CCOC(=O)CC[C@H](NC(=O)c1ccc(N(CCBr)Cc2ccc3nc(N)[nH]c(=O)c3c2)cc1)C(=O)OCC [CB 3746],,,> 100,
CCOC(=O)CC[C@H](NC(=O)c1ccc(N(Cc2ccc3nc(N)[nH]c(=O)c3c2)CC(O)CBr)cc1)C(=O)OCC (stereo partly drawn) [CB 3747],,,> 100,
C#CCN(Cc1ccc2nc(N)[nH]c(=O)c2c1)c1ccc(C(=O)N[C@@H](CC(=O)OCC)C(=O)OCC)cc1 [CB 3748],,,100,
C#CCN(Cc1ccc2nc(N)[nH]c(=O)c2c1)c1ccc(C(=O)N[C@@H](CCC(=O)OCC)C(=O)OCC)c(C)c1 [CB 3749],,,100,
C#CCN(Cc1ccc2nc(N)[nH]c(=O)c2c1)c1ccc(C(=O)N[C@@H](CCC(=O)OCC)C(=O)OCC)c(Cl)c1 [CB 3750],,,18,
"CCCN(Cc1ccc2nc(N)[nH]c(=O)c2c1)c1ccc(C(=O)N[C@@H](CCC(=O)O)C(=O)O)cc1 [Comparison, reference compound]",,,,IC50 [1]: 0.17 µM; IC50 (L1210 cells [2]; [5]): 33 µM; Ki [3]: 0.02 µM; IC50 (L1210:R71 cells): 315 µM; CROSS RESISTANCE (ID50 L1210:R71/ID50 L1210) (L1210:R71 cells): 10

# Source: patent US4447608A, “Anti-cancer quinazoline derivatives” (priority 1979, dated 1984)
